# Reference: patent publication US6613770B1, “Quinoline derivatives as NK-2 and NK-3 receptor ligands” (SmithKline Beecham S.p.A., priority 1998, dated 2003)
# Structures can show the parent of a compound that is named as a salt.
row,melting point [°C],SMILES
1,198 to 200,"CC(C)NC(=O)c1c(CN2CCN(C(C)C)CC2)c(-c2ccccc2)nc2ccccc12 (as salt: HCl) [Example 3, 3-(4-Isopropyl-piperazin-1-ylmethyl)-2-phenyl-quinoline-4-carboxylic acid isopropylamide]"
2,161 to 163,"CC(C)N1CCN(Cc2c(-c3ccccc3)nc3ccccc3c2C(=O)NC2CCCCC2)CC1 [Example 11, 3-(4-Isopropyl-piperazin-1-ylmethyl)-2-phenyl-quinoline-4-carboxylic acid cyclohexylamide]"
3,207 to 209,"C[C@H](NC(=O)c1c(CN2CCOCC2)c(-c2ccccc2)nc2ccccc12)C(C)(C)C [Example 7, 3-Morpholin-4-ylmethyl-2-phenyl-quinoline-4-carboxylic acid ((S)-1,2,2-trimethyl-propyl)-amide]"
4,144 to 146,"O=C(N[C@H]1CCCc2ccccc21)c1c(CN2CCC(N3CCC(O)CC3)CC2)c(-c2ccccc2)nc2ccccc12 [Example 5, 3-(4-Hydroxy-[1,4′]bipiperidinyl-1′-ylmethyl)-2-phenyl-quinoline-4-carboxylic acid ((S)-1,2,3,4-tetrahydro-naphthalen-1-yl)-amide]"
5,235 to 238,"CCC(CC)NC(=O)c1c(CN2CCN(C(C)C)CC2)c(-c2ccccc2)nc2ccccc12 (as salt: HCl) [Example 4, 3-(4-Isopropyl-piperazin-1-ylmethyl)-2-phenyl-quinoline-4-carboxylic acid (1-ethyl-propyl)-amide]"
6,98 to 100,"O=C(N[C@H]1CCc2ccccc21)c1c(CN2CCC(N3CCC(O)CC3)CC2)c(-c2ccccc2)nc2ccccc12 [Example 6, 3-(4-Hydroxy-[1,4′]bipiperidinyl-1′-ylmethyl)-2-phenyl-quinoline-4-carboxylic acid (S)-indan-1-ylamide]"
7,219 to 220,"O=C(NC1C2CC3CC(C2)CC1C3)c1c(CN2CCC(N3CCCCC3)CC2)c(-c2ccccc2)nc2ccccc12 (centres unmarked) [Example 10, 3-[1,4′]Bipiperidinyl-1′-ylmethyl-2-phenyl-quinoline-4-carboxylic acid adamantan-2-ylamide]"
8,215 to 217,"CC(C)CNC(=O)c1c(CN2CCN(C(C)C)CC2)c(-c2ccccc2)nc2ccccc12 [Example 2, 3-(4-Isopropyl-piperazin-1-ylmethyl)-2-phenyl-quinoline-4-carboxylic acid isobutyl-amide]"
